According to patent US4599351A (priority 1984, dated 1986):
Converted amounts (≈) assume the structure as drawn. “And” between values parts separate entries of the source, which are not always exact repeats. Identical values can stand only once.

Assays:
Pythium vexans Resistant = assay: microbe, parasite or virus in culture; type: cell-based; details: for ED50 Ratio R/S, Pythium vexans: ED50-resistant to ED50-sensitive; for IC50: Phytopythium vexans, read-out: ED50, Pythium vexans Resistant; for ED50 against resistant fungi (in words): resistant mutant strains of Pythium ultimum or Pythium vexans, agar studies
[1] = system: Pythium ultimum Resistant; assay: microbe, parasite or virus in culture; type: cell-based; details: for ED50 Ratio R/S, Pythium ultimum: ED50-resistant to ED50-sensitive; for IC50: Globisporangium ultimum, read-out: ED50, Pythium ultimum Resistant
[2] = system: Pythium vexans Sensitive (Naturally Occurring); assay: Fungitoxicity in V-8 juice agar, sensitive Pythium vexans (Example 7); type: cell-based; details: for IC50: Phytopythium vexans, V-8 juice agar, read-out: ED50, Pythium vexans Sensitive (Naturally Occurring)
[3] = system: Pythium ultimum Sensitive (Naturally Occurring); assay: Fungitoxicity in V-8 juice agar, sensitive Pythium ultimum (Example 7); type: cell-based; details: for IC50: Globisporangium ultimum, V-8 juice agar, read-out: ED50, Pythium ultimum Sensitive (Naturally Occurring)
Plasmopara viticola [4] = assay: whole plant or invertebrate; type: in vivo
Phytophthora infestans = assay: whole plant or invertebrate; type: in vivo
Plasmopara viticola [5] = assay: Eradicant Grape Downy Mildew control (Example 4); type: in vivo
Method: Compounds of the invention were tested for the eradicant control of the Grape Downy Mildew organism Plasmopara viticola. Detached leaves of between 70 and 80 mm diameter of 7-week-old Vitis vinifera cultivar Emperor grape seedlings were used as hosts. The leaves were inoculated with the organism and placed in an environment chamber and incubated at 18° C.-22° C. and at about 100% relative humidity for 1 to 2 days. The leaves were then sprayed with a solution of the test compound in acetone, water and a small amount of a nonionic emulsifier. The sprayed leaves were then maintained at 18° C.-22° C. and at about 100% relative humidity. Seven to nine days after inoculation, the amount of disease control was determined. The percent disease control provided by the compound of Example 1 was based on the percent disease reduction relative to nontreated check plants.

[6] = Plasmopara viticola, in Vitis vinifera, read-out: Fungicidal Efficacy, GDM (percent disease control)
[7] = Phytophthora infestans, in Solanum lycopersicum, read-out: Fungicidal Efficacy, TLB (percent disease control)
[8] = Table II Test 5, 6.4 ppm, infection in check plants 60%
[9] = Table II Test 5, 16 ppm, infection in check plants 60%
[10] = Table II Test 5, 40 ppm, infection in check plants 60%
[11] = Table II Test 4, 16 ppm, infection in check plants 63%
[12] = Table II Test 4, 40 ppm, infection in check plants 63%
[13] = Table II Test 4, 100 ppm, infection in check plants 63%
[14] = Table II Test 4, 250 ppm, infection in check plants 63%

SMILES | ED50 Ratio R/S, Pythium vexans (Pythium vexans Resistant) | IC50 (Pythium vexans Resistant) | ED50 Ratio R/S, Pythium ultimum [1] | IC50 [1] | IC50 [2] | IC50 [3] | pest or weed control at 250 ppm (Plasmopara viticola [4]; [6]) | pest or weed control at 250 ppm (Phytophthora infestans; [7]) | other results
COCC(=O)N(c1c(C)cccc1C)C(C)C(=O)OC (stereo not shown) [CONTROL, N-methoxyacetyl-N-(1-methoxycarbonylethyl)-2,6-dimethylaniline, reference compound] | 8,467 | 635 µg/mL (≈ 2270 µM) | 26,000 | 940 µg/mL (≈ 3370 µM) | 0.075 µg/mL (≈ 0.268 µM) | 0.036 µg/mL (≈ 0.129 µM) | – | – | –
Cc1cccc(C)c1N(C(=O)C(C)C)C1CCOC1=O (stereo not shown) [CH(CH3)2] | – | – | – | – | – | – | 0% | 23% | –
COCC(=O)N(c1c(C)cccc1C)C1CCOC1=O (stereo not shown) [CH2 OCH3, reference compound] | – | 400 µg/mL (≈ 1440 µM) | 160,000 | 800 µg/mL (≈ 2880 µM) | 0.15 µg/mL (≈ 0.541 µM) | 0.005 µg/mL (≈ 0.018 µM) | – | – | –
CCCCCC(=O)N(c1c(C)cccc1C)C1CCOC1=O (stereo not shown) [(CH2)4 CH3] | 29 | 16 µg/mL (≈ 52.7 µM) | – | – | 0.56 µg/mL (≈ 1.85 µM) | – | 100% | 91% | ED50 R/S ratio (in words) (Pythium vexans Resistant; Table III): excellent; effect of acquired Control resistance on fungitoxicity (in words) (Pythium vexans Resistant; Table III, resistant mutants of Pythium ultimum and/or Pythium vexans): substantially less affected by the acquired Control resistance than any of the compounds in Table III; ED50 against resistant fungi (in words) (Pythium vexans Resistant): excellent; base ED50 relative to Grape Downy Mildew producing fungi (natural), versus R^1 is propyl or butyl compounds (Plasmopara viticola [4]; in vivo): four to ten times higher than the R^1 is propyl or butyl compounds; Percent Control of TLB (Phytophthora infestans; [8]): 7%; Percent Control of TLB (Phytophthora infestans; [9]): 3%; Percent Control of TLB (Phytophthora infestans; [10]): 37%
CCCC(=S)N(c1c(C)cccc1C)C1CCOC1=O (stereo not shown) [CH2 CH2 CH3, Y = O, Z = S] | – | – | – | – | – | – | 100% | 96% | –
CCC(=O)N(c1c(C)cccc1C)C1CCOC1=O (stereo not shown) [C2 H5] | < 140 | 140 µg/mL (≈ 536 µM) | 808 | 210 µg/mL (≈ 804 µM) | > 1 µg/mL | 0.26 µg/mL (≈ 0.995 µM) | – | 23% | ED50 R/S ratio (in words) (Pythium vexans Resistant; Table III): very good; ED50 relative to the R^1 is butyl compound, P. vexans (resistant) (Pythium vexans Resistant; comparison in words): more than three times that of the R^1 is butyl compound; ED50 relative to the R^1 is propyl compound, P. vexans (resistant) (Pythium vexans Resistant; comparison in words): more than three times that of the R^1 is propyl compound; ED50 relative to the R^1 is propyl compound, P. ultimum (resistant) ([1]; comparison in words): more than twice the ED50 for the R^1 is propyl compound; ED50 relative to the R^1 is butyl compound, P. vexans (sensitive) ([2]; comparison in words): more than ten times; ED50 relative to the R^1 is propyl compound, P. vexans (sensitive) ([2]; comparison in words): more than two times; ED50 relative to the R^1 is propyl compound, P. ultimum (sensitive) ([3]; comparison in words): more than ten times; Percent Control of TLB (Phytophthora infestans; [11]): 0%; Percent Control of TLB (Phytophthora infestans; [12]): 0%; Percent Control of TLB (Phytophthora infestans; [13]): 54%; Percent Control of TLB (Phytophthora infestans; [14]): 80%
Cc1cccc(C)c1N(C(=O)C(C)(C)C)C1CCOC1=O (stereo not shown) [C(CH3)3] | – | – | – | – | – | – | – | 0% | –
Cc1cccc(C)c1N(C(=O)CC(C)C)C1CCOC1=O (stereo not shown) [CH2 CH(CH3)2] | – | – | – | – | – | – | 96% | 0% | –
CCCC(=O)N(c1c(C)cccc1C)C1CCSC1=O (stereo not shown) [CH2 CH2 CH3, Y = S, Z = O, 3-(N-butyryl-2,6-dimethylanilino)-butyrothiolactone] | – | – | – | – | – | – | 99% | 35% | –
CCCCC(=O)N(c1c(C)cccc1C)C1CCOC1=O (stereo not shown) [3-(N-valeryl-N-2,6-dimethylphenylamino)-gamma-butyrolactone] | 400 | 40 µg/mL (≈ 138 µM) | – | – | 0.1 µg/mL (≈ 0.346 µM) | – | 100% | 96% | ED50 against resistant fungi (in words) (Pythium vexans Resistant): substantially better ED50's against resistant fungi than the compounds where R^1 has less than 3 carbon atoms; Percent Control of GDM (Plasmopara viticola [4]; in vivo): 100% and 60% and 54%; fungicidal activity toward Grape Downy Mildew (in words) (Plasmopara viticola [4]; in vivo): unexpectedly high fungicidal activity toward Grape Downy Mildew; percent disease control (eradicant) (Plasmopara viticola [5]; 40 ppm): 92%; percent disease control (eradicant) (Plasmopara viticola [5]; 100 ppm): 100%; Percent Control of TLB (Phytophthora infestans; [8]): 8%; Percent Control of TLB (Phytophthora infestans; [9]): 28%; Percent Control of TLB (Phytophthora infestans; [10]): 42%
CCCC(=O)N(c1c(C)cccc1C)C1CCOC1=O (stereo not shown) [Example 1, 3-(N-butyryl-N-2,6-dimethylphenylamino)-gamma-butyrolactone] | 100 | 43 µg/mL (≈ 156 µM) | 4,750 | 95 µg/mL (≈ 345 µM) | 0.43 µg/mL (≈ 1.56 µM) | 0.02 µg/mL (≈ 0.0726 µM) | 100% | 99% | ED50 against resistant fungi (in words) (Pythium vexans Resistant): substantially better ED50's against resistant fungi than the compounds where R^1 has less than 3 carbon atoms; fungicidal activity toward Grape Downy Mildew (in words) (Plasmopara viticola [4]; in vivo): unexpectedly high fungicidal activity toward Grape Downy Mildew; percent disease control (eradicant) (Plasmopara viticola [5]; 40 ppm): 100%; percent disease control (eradicant) (Plasmopara viticola [5]; 100 ppm): 100%; percent disease control (eradicant) (Plasmopara viticola [5]; 250 ppm): 100%; Percent Control of TLB (Phytophthora infestans; [11]): 0%; Percent Control of TLB (Phytophthora infestans; [12]): 48%; Percent Control of TLB (Phytophthora infestans; [13]): 76%; Percent Control of TLB (Phytophthora infestans; [14]): 94%
Cc1cccc(C)c1N(C(=O)CCl)C1CCOC1=O (stereo not shown) [CH2 Cl, reference compound] | 763 | 145 µg/mL (≈ 515 µM) | 24,000 | 120 µg/mL (≈ 426 µM) | 0.19 µg/mL (≈ 0.674 µM) | 0.005 µg/mL (≈ 0.0177 µM) | – | – | –
CC(=O)N(c1c(C)cccc1C)C1CCOC1=O (stereo not shown) [CH3] | – | – | – | – | – | – | – | – | pest or weed control at 100 ppm (Plasmopara viticola [4]; [6]): 42%; pest or weed control at 100 ppm (Phytophthora infestans; [7]): 79%
